How the values were obtained:
stability = assay type: physicochemical; conditions: crystalline salt
water solubility = assay type: physicochemical; conditions: in water

In the case of `C=CC1=C(C(=O)O)N2C(=O)[C@@H](NC(=O)/C(=N\O)c3csc(N)n3)[C@H]2SC1.N` [Crystalline Cefdinir ammonium salt, Cefdinir ammonium salt], the stability (stability) is reported as “good” and the water solubility (water solubility) is reported as “complete”.

Source: patent US20080033169A1, “Crystalline Form Of Cefdinir Ammonium Salt As An Intermediate For The Preparation Of Pure Cefdinir” (priority 2004, published 2008)
